Experimental data taken from patent US12673925B2, “Compounds and compositions for eye treatments” (Avedro, Inc., priority 2018, dated 2026).

System: cornea of porcine whole globes
Assay: Porcine eye corneal flattening assay
Settings: de-epithelialized porcine cornea; 0.11% w/v in saline; UVA 4 mm circle, 365 nm, 30 mW/cm^2, pulsed, 16.2 min, 15 J, 90%+ oxygen, 37.0° C.
Experimental: Protocol 1 (For Examples 8, 9, 10, 17, 18, 19, 20, 28, and 29): Porcine whole globes in saline at 4° C. were warmed to room temperature. […] The eye holders were then positioned inside an enclosed chamber that allows for the control of atmosphere, temperature and humidity (typically a water bath at 37.0° C.). IOP is maintained at a constant pressure by the insertion of a blood bank buffered saline line from an IV bag at a standard height inserted into each eye via a syringe needle. 5% Dextran T500 in blood bank buffered saline is dropped onto the surface of the cornea of each eye every 90 sec for 2 hours to allow the eyes to stabilize. […] The test eye is then orientated in a vertical position and the pre-treatment surface keratometry of the cornea measured using a Pentacam® HR device fine cornea 100 scan. […] After a further 1.5 hours during which the 5% dextran drops are resumed the eye is orientated back to the vertical position and the post-treatment surface keratometry of the cornea measured using a Pentacam® HR device fine cornea 100 scan as before. The difference map between the pre and post treatment corneal images is obtained and the overall change in keratometry (Km) of the central 3 mm zone recorded as a change in diopters. […]

Cc1cc2nc(-c3nnnn3C)c(=O)n(C[C@H](O)[C@H](O)[C@H](O)CO)c2cc1C [Compound 40]
Refractive Change (D): −2.5 D
